Experimental data published in article PMC7576618 (British Journal of Clinical Pharmacology, 2020).

Experiments:
healthy subjects [1] = test: SAD study: safety and tolerability; assay type: in vivo, human
healthy subjects [2] = test: MAD study: safety and tolerability; assay type: in vivo, human
[3] = monkeys; cited from earlier work
[4] = SAD Parts A and C, Total TS‐134 fed (n = 8)
[5] = SAD, 20 mg fasted treatment group
[6] = MAD Cohort 1, 5–10 mg fed (n = 8)
[7] = MAD Cohort 2, 5–20 mg fed (n = 8)
[8] = MAD Cohort 3, 5–40 mg fed (n = 8)
[9] = MAD Cohort 4, 5–60 mg fed (n = 8)
[10] = MAD Cohort 5, 10–80 mg fed (n = 8)
[11] = MAD Cohort 6, 10–80 mg fed (n = 7)
[12] = MAD, 80 mg MP in Cohort 5, data not shown

Compound: CC(C)[C@@H]1CC[C@@H](C)C[C@H]1OC(=O)O[C@@H](C)OC(=O)[C@H]1[C@@H]2C[C@H](F)[C@@](N)(C(=O)O)[C@@H]21.O=S(=O)(O)c1ccccc1 [TS‐134, (1S,2S,3S,5R,6S)‐2‐amino‐3‐ fluoro‐6‐({(1S)‐1‐[({[(1R,2S,5R)‐5‐methyl‐2‐(propan‐2‐yl)cyclohexyl]oxy}carbonyl)oxy]ethoxy}carbonyl)bicyclo[3.1.0]hexane‐2‐carboxylic acid monobenzenesulfonate]
- Somnolence (healthy subjects [1]; [4]): 0 Number of subjects (%)
- Total number of TEAEs (healthy subjects [1]; [4]): 7
- Vomiting (healthy subjects [1]; [4]): 1 (12.5) Number of subjects (%)
- reports of severe nausea (healthy subjects [1]; [5]): 1 report
- reports of severe vomiting (healthy subjects [1]; [5]): 2 reports
- dose up to which a single dose was tolerated (healthy subjects [1]; SAD, single oral dose TS‐134 solution): up to 10 mg
- deaths or serious adverse events (healthy subjects [1]; both studies): no deaths or serious adverse events
- dose up to which multiple dose titration was tolerated (healthy subjects [2]; 14‐day MAD, titration schemes under fed conditions): up to 80 mg
- Abnormal dreams (healthy subjects [2]; [6]): 0 Number of subjects (%)
- Dizziness (healthy subjects [2]; [6]): 0 Number of subjects (%)
- Headache (healthy subjects [2]; [6]): 1 (12.5) Number of subjects (%)
- Insomnia (healthy subjects [2]; [6]): 0 Number of subjects (%)
- Nausea (healthy subjects [2]; [6]): 2 (25.0) Number of subjects (%)
- Number of subjects with at least 1 TEAE (healthy subjects [2]; [6]): 5 (62.5) Number of subjects (%)
- Post lumbar puncture syndrome (healthy subjects [2]; [6]): 0 Number of subjects (%)
- Pruritus (healthy subjects [2]; [6]): 0 Number of subjects (%)
- Somnolence (healthy subjects [2]; [6]): 3 (37.5) Number of subjects (%)
- Total number of TEAEs (healthy subjects [2]; [6]): 11
- Vomiting (healthy subjects [2]; [6]): 0 Number of subjects (%)
- Abnormal dreams (healthy subjects [2]; [7]): 0 Number of subjects (%)
- Dizziness (healthy subjects [2]; [7]): 1 (12.5) Number of subjects (%)
- Headache (healthy subjects [2]; [7]): 3 (37.5) Number of subjects (%)
- Insomnia (healthy subjects [2]; [7]): 0 Number of subjects (%)
- Nausea (healthy subjects [2]; [7]): 3 (37.5) Number of subjects (%)
- Number of subjects with at least 1 TEAE (healthy subjects [2]; [7]): 5 (62.5) Number of subjects (%)
- Post lumbar puncture syndrome (healthy subjects [2]; [7]): 0 Number of subjects (%)
- Pruritus (healthy subjects [2]; [7]): 0 Number of subjects (%)
- Somnolence (healthy subjects [2]; [7]): 1 (12.5) Number of subjects (%)
- Total number of TEAEs (healthy subjects [2]; [7]): 17
- Vomiting (healthy subjects [2]; [7]): 0 Number of subjects (%)
- Abnormal dreams (healthy subjects [2]; [8]): 0 Number of subjects (%)
- Dizziness (healthy subjects [2]; [8]): 3 (37.5) Number of subjects (%)
- Headache (healthy subjects [2]; [8]): 3 (37.5) Number of subjects (%)
- Insomnia (healthy subjects [2]; [8]): 0 Number of subjects (%)
- Nausea (healthy subjects [2]; [8]): 2 (25.0) Number of subjects (%)
- Number of subjects with at least 1 TEAE (healthy subjects [2]; [8]): 5 (62.5) Number of subjects (%)
- Post lumbar puncture syndrome (healthy subjects [2]; [8]): 0 Number of subjects (%)
- Pruritus (healthy subjects [2]; [8]): 0 Number of subjects (%)
- Somnolence (healthy subjects [2]; [8]): 1 (12.5) Number of subjects (%)
- Total number of TEAEs (healthy subjects [2]; [8]): 16
- Vomiting (healthy subjects [2]; [8]): 1 (12.5) Number of subjects (%)
- Abnormal dreams (healthy subjects [2]; [9]): 2 (25.0) Number of subjects (%)
- Dizziness (healthy subjects [2]; [9]): 1 (12.5) Number of subjects (%)
- Headache (healthy subjects [2]; [9]): 5 (62.5) Number of subjects (%)
- Insomnia (healthy subjects [2]; [9]): 3 (37.5) Number of subjects (%)
- Nausea (healthy subjects [2]; [9]): 3 (37.5) Number of subjects (%)
- Number of subjects with at least 1 TEAE (healthy subjects [2]; [9]): 8 (100) Number of subjects (%)
- Post lumbar puncture syndrome (healthy subjects [2]; [9]): 0 Number of subjects (%)
- Pruritus (healthy subjects [2]; [9]): 1 (12.5) Number of subjects (%)
- Somnolence (healthy subjects [2]; [9]): 1 (12.5) Number of subjects (%)
- Total number of TEAEs (healthy subjects [2]; [9]): 26
- Vomiting (healthy subjects [2]; [9]): 2 (25.0) Number of subjects (%)
- Abnormal dreams (healthy subjects [2]; [10]): 0 Number of subjects (%)
- Dizziness (healthy subjects [2]; [10]): 0 Number of subjects (%)
- Headache (healthy subjects [2]; [10]): 3 (37.5) Number of subjects (%)
- Insomnia (healthy subjects [2]; [10]): 0 Number of subjects (%)
- Nausea (healthy subjects [2]; [10]): 3 (37.5) Number of subjects (%)
- Number of subjects with at least 1 TEAE (healthy subjects [2]; [10]): 7 (87.5) Number of subjects (%)
- Post lumbar puncture syndrome (healthy subjects [2]; [10]): 0 Number of subjects (%)
- Pruritus (healthy subjects [2]; [10]): 0 Number of subjects (%)
- Somnolence (healthy subjects [2]; [10]): 1 (12.5) Number of subjects (%)
- Total number of TEAEs (healthy subjects [2]; [10]): 30
- Vomiting (healthy subjects [2]; [10]): 0 Number of subjects (%)
- Abnormal dreams (healthy subjects [2]; [11]): 0 Number of subjects (%)
- Dizziness (healthy subjects [2]; [11]): 3 (42.9) Number of subjects (%)
- Headache (healthy subjects [2]; [11]): 1 (14.3) Number of subjects (%)
- Insomnia (healthy subjects [2]; [11]): 1 (14.3) Number of subjects (%)
- Nausea (healthy subjects [2]; [11]): 2 (28.6) Number of subjects (%)
- Number of subjects with at least 1 TEAE (healthy subjects [2]; [11]): 6 (85.7) Number of subjects (%)
- Post lumbar puncture syndrome (healthy subjects [2]; [11]): 0 Number of subjects (%)
- Pruritus (healthy subjects [2]; [11]): 3 (42.9) Number of subjects (%)
- Somnolence (healthy subjects [2]; [11]): 2 (28.6) Number of subjects (%)
- Total number of TEAEs (healthy subjects [2]; [11]): 25
- Vomiting (healthy subjects [2]; [11]): 0 Number of subjects (%)
- Abnormal dreams (healthy subjects [2]; MAD Total TS‐134 (n = 47)): 2 (4.3) Number of subjects (%)
- Dizziness (healthy subjects [2]; MAD Total TS‐134 (n = 47)): 8 (17.0) Number of subjects (%)
- Headache (healthy subjects [2]; MAD Total TS‐134 (n = 47)): 16 (34.0) Number of subjects (%)
- Insomnia (healthy subjects [2]; MAD Total TS‐134 (n = 47)): 4 (8.5) Number of subjects (%)
- Nausea (healthy subjects [2]; MAD Total TS‐134 (n = 47)): 15 (31.9) Number of subjects (%)
- Number of subjects with at least 1 TEAE (healthy subjects [2]; MAD Total TS‐134 (n = 47)): 36(76.6) Number of subjects (%)
- Post lumbar puncture syndrome (healthy subjects [2]; MAD Total TS‐134 (n = 47)): 0 Number of subjects (%)
- Pruritus (healthy subjects [2]; MAD Total TS‐134 (n = 47)): 4 (8.5) Number of subjects (%)
- Somnolence (healthy subjects [2]; MAD Total TS‐134 (n = 47)): 9 (19.1) Number of subjects (%)
- Total number of TEAEs (healthy subjects [2]; MAD Total TS‐134 (n = 47)): 125
- Vomiting (healthy subjects [2]; MAD Total TS‐134 (n = 47)): 3 (6.4) Number of subjects (%)
- discontinuations due to TEAEs (healthy subjects [2]; MAD study): no discontinuations due to TEAEs
- reports of severe anxiety (healthy subjects [2]; [12]): 1 report
- reports of severe fatigue (healthy subjects [2]; [12]): 1 report
- incidence of dizziness (healthy subjects [2]; MAD, total TS‐134 group): 17.0%
- incidence of headache (healthy subjects [2]; MAD, total TS‐134 group): 34.0%
- incidence of nausea (healthy subjects [2]; MAD, total TS‐134 group): 31.9%
- incidence of somnolence (healthy subjects [2]; MAD, total TS‐134 group): 19.1%
- incidence of vomiting (healthy subjects [2]; MAD, total TS‐134 group): 6.4%
- conversion of the prodrug into MGS0008 after oral administration [3]: rapidly converted into MGS0008
